Here are results for one substance from US9078851B2, “Composition for preventing or treating a spinal cord injury” (UNIVERSITY-INDUSTRY COOPERATION GROUP OF KYUNG HEE, priority 2009, dated 2015).

Format in all cases: in vivo, rat
The test system of assay [1] is TNF-α and IL-10 in peripheral blood. The assay is described as follows: ELISA of cytokines in peripheral blood in spinal cord injury model. To be noted: 5 nmol/kg tail vein; serum at 1 hour, 6 hours, 1 day, 3 days, 5 days; vs control. The method, then:
For the present experiment, male white mice (Sprague-Dawley 240-250 g, 7 weeks, 10 mice) were under general anesthetics by an intraperitoneal injection of Ketamin (80 mg/kg, Yuhan Corporation) and Rompun (7.4 mg/kg, Bayer Korea Corporation). Laminectomy was performed at spine T9-10 level to expose a spinal cord keeping intact dura. And then, rat was put on Spinal cord dropping device (NYU); spine processes at T8 and T11 sites were fixed by using a clamp, respectively; then, a rod (diameter 2 mm, weight 10 g) was dropped from 25 mm height vertical to dorsal part of spinal cord followed by suturing injury site muscle and skin. The rat of Sham-operated control group was performed only laminectomy at same area without damaging spinal cord injury (marked by ‘sham” in figures; hereinafter, the same as above). […]
At immediately, 1 d, 2 ds, in order to investigate an effect of Substance P in cytokine in a peripheral blood, Substance P (5 nmol/kg in saline) or saline (the same volume without Substance P) was injected through tail vein, respectively using the same method as (1) of Example 1. […] Finally, The levels of TNF-α and IL-10 were measured by using ELISA kit (R&D Systems).
In general terms: In an ELISA, binding on a coated surface is turned into a signal by an enzyme label.

Assay [2] deals with spinal cord injury. Kind of assay: Ethologic change test, BBB locomotor rating scale after spinal cord injury. The method, then:
For the present experiment, male white mice (Sprague-Dawley 240-250 g, 7 weeks, 10 mice) were under general anesthetics by an intraperitoneal injection of Ketamin (80 mg/kg, Yuhan Corporation) and Rompun (7.4 mg/kg, Bayer Korea Corporation). Laminectomy was performed at spine T9-10 level to expose a spinal cord keeping intact dura. And then, rat was put on Spinal cord dropping device (NYU); spine processes at T8 and T11 sites were fixed by using a clamp, respectively; then, a rod (diameter 2 mm, weight 10 g) was dropped from 25 mm height vertical to dorsal part of spinal cord followed by suturing injury site muscle and skin. The rat of Sham-operated control group was performed only laminectomy at same area without damaging spinal cord injury (marked by ‘sham” in figures; hereinafter, the same as above). Substance P (marked by ‘SP’ in figures; hereinafter, the same as above) dissolved in saline of 5 nmol/kg concentration was injected through tail vein at immediately, 24 hours, and 48 hours after a spinal cord injury for experimental groups. At sham control group, same volume of saline (marked by ‘vehicle’ in figures; hereinafter, the same as above) without Substance P was injected at same time points. Operation were performed on an electric heating pad of 37° C., and then rat were transferred to cage after awake from the anesthetic. • (2) Preparation of Tissue An ethologic change test was performed as follows: an experimental animal was put to a large basin having soft and non-smooth bottom (Width 90 cm×Length 130 cm×Height 30 cm); then body's balance states and moving states of hind-leg's coxalgic pelvis, knee joint, and ankle joint were observed when freely walking; then it was converted into a score based on Basso-Bresnahan-Beattie (BBB) locomotor rating scale (Basso et al., 1995); and then four researchers performed a blind technique. Substance P or saline was injected to a tail vein of rat, respectively at immediately, 1 d, 2 d after a spinal cord injury, using the same method as (1) of Example 1. And then, for the experimental group (10 rats/group) and the control (9 rats/group), an ethologic change due to a spinal cord injury was observed and estimated for different periods, such as after injuring, 1 week, 2 weeks, 3 weeks, 4 weeks, 5 weeks, […], and 6 weeks. A mean value of scores (BBB scores) observed by four researchers was taken, and the results thereof were statistically analyzed. The statistical analysis was performed in a method of two-way ANOVA with post hoc Tukey test.

The subject of assay [3] is myelin sheath of nerve cell. Kind of assay: Immunofluorescence staining of myelin base protein (MBP) after spinal cord injury. The method, then:
For the present experiment, male white mice (Sprague-Dawley 240-250 g, 7 weeks, 10 mice) were under general anesthetics by an intraperitoneal injection of Ketamin (80 mg/kg, Yuhan Corporation) and Rompun (7.4 mg/kg, Bayer Korea Corporation). Laminectomy was performed at spine T9-10 level to expose a spinal cord keeping intact dura. And then, rat was put on Spinal cord dropping device (NYU); spine processes at T8 and T11 sites were fixed by using a clamp, respectively; then, a rod (diameter 2 mm, weight 10 g) was dropped from 25 mm height vertical to dorsal part of spinal cord followed by suturing injury site muscle and skin. The rat of Sham-operated control group was performed only laminectomy at same area without damaging spinal cord injury (marked by ‘sham” in figures; hereinafter, the same as above).
Substance P (marked by ‘SP’ in figures; hereinafter, the same as above) dissolved in saline of 5 nmol/kg concentration was injected through tail vein at immediately, 24 hours, and 48 hours after a spinal cord injury for experimental groups. At sham control group, same volume of saline (marked by ‘vehicle’ in figures; hereinafter, the same as above) without Substance P was injected at same time points. Operation were performed on an electric heating pad of 37° C., and then rat were transferred to cage after awake from the anesthetic. • (2) Preparation of Tissue […]

Substance P: in assay [1], the “level of IL-10 in peripheral blood” value is given as “no meaningful differences” and the “level of TNF-α in peripheral blood” value is reported as “no meaningful differences”. Also, in assay [2] (from 14 days, vs control), the motor skill entry is reported as “meaningful improved”. In addition, in assay [2] (from about 5 weeks, vs control), the motor skill entry is “meaningfully recovered and improved”. The “spinal cord nerve function” value in assay [2] (from about one week after administrating, vs control) is “beginning to recover”. In addition, the BBB score in assay [2] (tail vein injection at immediately, 1 d, 2 d after injury, at 6 weeks, P<0.05 vs control) was found to be 11.5±0.5. In assay [3] (at 2 mm rostal and caudal from the center), the “inhibition of tissue lose” value is given as “at least 50%”. Also, the MBP-positive sheath entry in assay [3] (tail vein injection, after spinal cord injury) is given as “well preserved”.
